Laboratory results reported in patent publication US11566007B2, “Ras inhibitors” (Revolution Medicines, Inc., priority 2019, dated 2023).

What was measured:
K-Ras G12C = K-Ras G12C (Homo sapiens (Human), UniProt P01116+P62937, G12C); test: Ras-Raf (BRAF RBD) disruption / FRET / MOA assay, KRAS G12C; format: biochemical; conditions: KRAS G12C; Ras-Raf disruption/FRET/MOA assay; read-out: IC50* KRAS G12C FRET data
Summary of the method: (§1)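 Ras:RAF disruption was scored as a fall in TR-FRET ratio relative to DMSO. Compound ranged in 3-fold steps over 10 points from 30 μM final; incubation ran 3 h at 25° C, detection antibodies a further 1.5 h. Reported as IC50.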

NCI-H358 (K-Ras G12C) = test: CellTiter-Glo cell viability assay, NCI-H358; format: cell-based, human; conditions: Homo sapiens, NCI-H358, 120 h, NCI-H358, 5-day treatment; class symbols; read-out: Additional H358 Cell Viability assay data (K-Ras G12C, IC50)
Summary of the method: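 Viability of K-Ras mutant lines is measured by ATP luminescence after five days of compound treatment. Percent of DMSO control is calculated and dose-response data are fitted with a four-parameter logistic equation.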

NRAS WT = NRAS WT (Homo sapiens (Human), UniProt P01111+P62937); test: Ras-Raf (BRAF RBD) disruption / FRET / MOA assay, NRAS WT; format: biochemical; conditions: read-out: IC50* NRAS WT FRET data
Chain of NRAS WT (P01111 whole entry): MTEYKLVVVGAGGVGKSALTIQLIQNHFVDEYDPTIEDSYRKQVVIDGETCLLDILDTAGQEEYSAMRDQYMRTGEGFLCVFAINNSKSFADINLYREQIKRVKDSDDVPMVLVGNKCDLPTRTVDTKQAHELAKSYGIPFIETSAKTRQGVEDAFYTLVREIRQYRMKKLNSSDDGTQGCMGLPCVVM
Chain of NRAS WT (P62937 whole entry): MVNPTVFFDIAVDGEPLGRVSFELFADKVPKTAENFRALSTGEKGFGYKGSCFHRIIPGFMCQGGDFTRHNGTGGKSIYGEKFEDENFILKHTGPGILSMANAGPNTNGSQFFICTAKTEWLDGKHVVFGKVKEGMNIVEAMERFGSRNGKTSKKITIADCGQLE
Summary of the method: (§2)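 TR-FRET disruption of nucleotide-loaded Ras binding to BRAF RBD via compound-driven ternary complex with cyclophilin A. Compound as 10-point 3-fold series from 30 μM final, 3 h at 25° C, then anti-His Eu-W1024 (10 nM) and anti-GST allophycocyanin (50 nM) for 1.5 h. IC50 from decreased FRET ratio versus DMSO.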

KRAS G12V = KRAS G12V (Homo sapiens (Human), UniProt P01116+P62937, G12V); test: Ras-Raf (BRAF RBD) disruption / FRET / MOA assay, KRAS G12V; format: biochemical; conditions: read-out: IC50* KRAS G12V FRET data
Chain of KRAS G12V (P01116-2 other isoform, or with tags, fused parts or gaps G12V): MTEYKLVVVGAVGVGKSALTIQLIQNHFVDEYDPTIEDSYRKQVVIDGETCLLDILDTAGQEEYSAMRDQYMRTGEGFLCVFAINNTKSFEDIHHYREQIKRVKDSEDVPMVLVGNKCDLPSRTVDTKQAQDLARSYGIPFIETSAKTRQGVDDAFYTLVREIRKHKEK
Chain of KRAS G12V (P62937 whole entry): as the sequence (P62937 whole entry) above
Summary of the method: as §1

KRAS G12D = KRAS G12D (Homo sapiens (Human), UniProt P01116+P62937, G12D); test: Ras-Raf (BRAF RBD) disruption / FRET / MOA assay, KRAS G12D; format: biochemical; conditions: Ras-Raf disruption/FRET/MOA assay; class symbols; read-out: KRAS G12D FRET data IC50
Chain of KRAS G12D (P01116-2 other isoform, or with tags, fused parts or gaps G12D): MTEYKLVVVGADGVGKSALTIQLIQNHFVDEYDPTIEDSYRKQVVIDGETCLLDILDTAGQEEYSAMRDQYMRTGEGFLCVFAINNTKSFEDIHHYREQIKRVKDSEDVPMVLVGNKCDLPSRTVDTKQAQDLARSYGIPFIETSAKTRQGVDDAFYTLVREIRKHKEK
Chain of KRAS G12D (P62937 whole entry): as the sequence (P62937 whole entry) above
Summary of the method: as §1

NRAS Q61K = NRAS Q61K (Homo sapiens (Human), UniProt P01111+P62937, Q61K); test: Ras-Raf (BRAF RBD) disruption / FRET / MOA assay, NRAS Q61K; format: biochemical; conditions: NRAS Q61K; Ras-Raf disruption/FRET/MOA assay; read-out: IC50* NRAS Q61K FRET data
Chain of NRAS Q61K (P01111 whole entry Q61K): as the sequence (P01111 whole entry) above, with Q61K counted along it
Chain of NRAS Q61K (P62937 whole entry): as the sequence (P62937 whole entry) above
Summary of the method: as §2

NRAS G12C = NRAS G12C (Homo sapiens (Human), UniProt P01111+P62937, G12C); test: Ras-Raf (BRAF RBD) disruption / FRET / MOA assay, NRAS G12C; format: biochemical; conditions: read-out: IC50* NRAS G12C FRET data
Chain of NRAS G12C (P01111 whole entry G12C): as the sequence (P01111 whole entry) above, with G12C counted along it
Chain of NRAS G12C (P62937 whole entry): as the sequence (P62937 whole entry) above
Summary of the method: as §1

Chain of K-Ras G12C (P01116-2 other isoform, or with tags, fused parts or gaps G12C): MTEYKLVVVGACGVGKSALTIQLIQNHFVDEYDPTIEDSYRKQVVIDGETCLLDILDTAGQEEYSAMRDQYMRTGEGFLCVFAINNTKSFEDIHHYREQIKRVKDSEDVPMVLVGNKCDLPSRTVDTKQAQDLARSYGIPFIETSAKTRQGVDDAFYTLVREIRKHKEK
Chain of K-Ras G12C (P62937 whole entry): as the sequence (P62937 whole entry) above

Structure (SMILES) | IC50 (K-Ras G12C) [nM] | IC50 (NCI-H358 (K-Ras G12C)) [nM] | IC50 (NRAS WT) [nM] | IC50 (KRAS G12V) [nM] | IC50 (KRAS G12D) [nM] | IC50 (NRAS Q61K) [nM] | IC50 (NRAS G12C) [nM]
CCn1c(-c2cccnc2[C@H](C)OC)c2c3cc(ccc31)-c1csc(n1)C[C@H](NC(=O)[C@@H](COC1CN(C(=O)C#CC(C)(C)N(C)C)C1)OC)C(=O)N1CCC[C@H](N1)C(=O)OCC(C)(C)C2 (atropisomer, axis not shown) [Example A660] | < 10 | < 10 | 100 to 1000 | 100 to 1000 | 1000 to 10000 | 100 to 1000 | < 10
C=CC(=O)N1CC[C@H](C(=O)N(C)[C@H](C(=O)N[C@H]2Cc3cc(CF)cc(c3)-c3ccc4c(c3)c(c(-c3cccnc3[C@H](C)OC)n4CC)CC(C)(C)COC(=O)[C@@H]3CCCN(N3)C2=O)C(C)C)C1 (atropisomer, axis not shown) [Example A503] | 10 to 100 | < 10 | 1000 to 10000 | 1000 to 10000 | 1000 to 10000 | 1000 to 10000 | 10 to 100
C=CC(=O)N1CC[C@@]2(CCN2C(=O)N(C)[C@H](C(=O)N[C@H]2Cc3nc(cs3)-c3ccc4c(c3)c(c(-c3cccnc3[C@H](C)OC)n4CC)CC(C)(C)COC(=O)[C@@H]3CCCN(N3)C2=O)C(C)C)C1 (atropisomer, axis not shown) [Example A661] | 10 to 100 | < 10 | 100 to 1000 | 1000 to 10000 | 1000 to 10000 | 10 to 100 | 10 to 100
C=CC(=O)Nc1ccc(C(=O)N(C)[C@H](C(=O)N[C@H]2Cc3cc(O)cc(c3)-c3ccc4c(c3)c(c(-c3cccnc3[C@H](C)OC)n4CC)CC(C)(C)COC(=O)[C@@H]3CCCN(N3)C2=O)C(C)C)nc1 (atropisomer, axis not shown) [Example A252] | 10 to 100 | 10 to 100 | 100 to 1000 | 100 to 1000 | 1000 to 10000 | 1000 to 10000 | 10 to 100
C=CC(=O)N1CCO[C@H]2CCN(C(=O)N(C)[C@H](C(=O)N[C@H]3Cc4nc(cs4)-c4ccc5c(c4)c(c(-c4cccnc4[C@H](C)OC)n5CC)CC(C)(C)COC(=O)[C@@H]4CCCN(N4)C3=O)C(C)C)C[C@H]21 (atropisomer, axis not shown) [Example A580] | 10 to 100 | 10 to 100 | 100 to 1000 | 100 to 1000 | 1000 to 10000 | 10 to 100 | 10 to 100
C=CC(=O)N1CCO[C@H]2CN(C(=O)N(C)[C@H](C(=O)N[C@H]3Cc4nc(cs4)-c4ccc5c(c4)c(c(-c4cccnc4[C@H](C)OC)n5CC)CC(C)(C)COC(=O)[C@@H]4CCCN(N4)C3=O)C(C)C)C[C@H]21 (atropisomer, axis not shown) [Example A706] | 10 to 100 | < 10 | 1000 to 10000 | 1000 to 10000 | > 10000 | 100 to 1000 | 10 to 100
C=CC(=O)N1CC[C@H](C(=O)N(C)[C@H](C(=O)N[C@H]2Cc3cccc(c3)-c3ccc4c(c3)c(c(-c3cccnc3[C@H](C)OC)n4CC(F)(F)F)CC(C)(C)COC(=O)[C@@H]3CCCN(N3)C2=O)C(C)C)C1 (atropisomer, axis not shown) [Example A332] | 10 to 100 | < 10 | 1000 to 10000 | 1000 to 10000 | 1000 to 10000 | 1000 to 10000 | 10 to 100
CCn1c(-c2cccnc2[C@H](C)OC)c2c3cc(ccc31)-c1cc(CF)cc(c1)C[C@H](NC(=O)[C@@H](COC1CN(C(=O)C#CC(C)(C)N(C)C)C1)C(C)C)C(=O)N1CCC[C@H](N1)C(=O)OCC(C)(C)C2 (atropisomer, axis not shown) [Example A587] | 10 to 100 | < 10 | > 10000 | > 10000 | > 10000 | > 10000 | 10 to 100
CO[C@@H](C)c1ncccc1-c1c2c3cc(ccc3n1CC(F)(F)F)-c1cc(CF)cc(c1)C[C@H](NC(=O)[C@@H](COC1CN(C(=O)C#CC(C)(C)N(C)C)C1)C(C)C)C(=O)N1CCC[C@H](N1)C(=O)OCC(C)(C)C2 (atropisomer, axis not shown) [Example A589] | 10 to 100 | < 10 | 1000 to 10000 | > 10000 | > 10000 | > 10000 | 10 to 100
C=C(OC)C(=O)N1CC2(CCN(C(=O)N(C)[C@H](C(=O)N[C@H]3Cc4nc(cs4)-c4ccc5c(c4)c(c(-c4cccnc4[C@H](C)OC)n5CC)CC(C)(C)COC(=O)[C@@H]4CCCN(N4)C3=O)C(C)C)CC2)C1 (atropisomer, axis not shown) [Example A681] | 10 to 100 | 10 to 100 | 100 to 1000 | 100 to 1000 | 100 to 1000 | 10 to 100 | 10 to 100
CCn1c(-c2cccnc2[C@H](C)OC)c2c3cc(ccc31)-c1csc(n1)C[C@H](NC(=O)[C@H](C(C)C)N(C)C(=O)N1C[C@H]3CN(C(=O)C#CC(C)(C)N(C)C)CC[C@H]31)C(=O)N1CCC[C@H](N1)C(=O)OCC(C)(C)C2 (atropisomer, axis not shown) [Example A624] | 10 to 100 | < 10 | 100 to 1000 | 100 to 1000 | 1000 to 10000 | 100 to 1000 | 10 to 100
CCn1c(-c2cccnc2[C@H](C)OC)c2c3cc(ccc31)-c1cccc(c1)C[C@H](NC(=O)[C@H](C(C)C)N1CO[C@@]3(CCN(C(=O)/C=C/CN(C)C)C3)C1=O)C(=O)N1CCC[C@H](N1)C(=O)OCC(C)(C)C2 (atropisomer, axis not shown) [Example A558] | 10 to 100 | 10 to 100 | 100 to 1000 | 1000 to 10000 | 1000 to 10000 | 1000 to 10000 | 10 to 100
C=CC(=O)N1CC2(CCN2C(=O)N(C)[C@H](C(=O)N[C@H]2Cc3nc(n(C)n3)-c3ccc4c(c3)c(c(-c3cccnc3[C@H](C)OC)n4CC)CC(C)(C)COC(=O)[C@@H]3CCCN(N3)C2=O)C(C)C)C1 (atropisomer, axis not shown) [Example A612] | 10 to 100 | 100 to 1000 | 10 to 100 | 100 to 1000 | 100 to 1000 | 10 to 100 | < 10
C=CC(=O)N1CCC(F)(C(=O)N(C)[C@H](C(=O)N[C@H]2Cc3nc(cs3)-c3ccc4c(c3)c(c(-c3cccnc3[C@H](C)OC)n4CC)CC(C)(C)COC(=O)[C@@H]3CCCN(N3)C2=O)C(C)C)CC1 (atropisomer, axis not shown) [Example A700] | 10 to 100 | < 10 | 100 to 1000 | 100 to 1000 | 100 to 1000 | 100 to 1000 | 10 to 100
